This is an account of results in US9890185B2, “Urea derivatives useful as kinase inhibitors” (Respivert Limited, priority 2013, dated 2018).

Molecules are shown by their SMILES. Like-named read-outs stand apart in the source and are kept apart here. Where only a bound is given, the exact number is not on record here.

In one experiment the target is GSK 3α (Homo sapiens (Human), UniProt P49840). Briefly: GSK 3α enzyme inhibition (FRET, Z-LYTE, Method 2). It is filed as biochemical. Particulars: read-out: IC50 Values for Enzyme Inhibition, GSK3α. The protocol:
The enzyme inhibitory activities of compounds disclosed herein are determined by FRET using synthetic peptides labelled with both donor and acceptor fluorophores (Z-LYTE, Invitrogen Ltd., Paisley, UK).
The following two assay variants can be used for determination of GSK 3α inhibition.
The inhibitory activities of compounds of the invention against the GSK 3α enzyme isoform (Invitrogen), are evaluated by determining the level of activation/phosphorylation of the target peptide. The GSK3-α protein (500 ng/mL, 2.5 μL) is mixed with the test compound (2.5 μL at either 4 μg/mL, 0.4 μg/mL, 0.04 μg/mL, or 0.004 μg/mL) for 2 hr at RT. The FRET peptide (8 μM, 2.5 μL), which is a phosphorylation target for GSK3α, and ATP (40 μM, 2.5 μL) are then added to the enzyme/compound mixture and the resulting mixture incubated for 1 hr. Development reagent (protease, 5 μL) is added for 1 hr prior to detection in a fluorescence microplate reader (Varioskan® Flash, ThermoFisher Scientific).
In all cases, the site-specific protease cleaves non-phosphorylated peptide only and eliminates the FRET signal. Phosphorylation levels of each reaction are calculated using the ratio of coumarin emission (donor) over fluorescein emission (acceptor), for which high ratios indicate high phosphorylation and low ratios indicate low phosphorylation levels. The percentage inhibition of each reaction is calculated relative to non-inhibited control and the 50% inhibitory concentration (IC50 value) is then calculated from the concentration-response curve.
This method follows the same steps as Method 1 above, but utilises a shorter period of mixing of the test compound (105 minutes instead of 2 hours) with the GSK3-α protein.

The next experiment relates to PBMCs. Briefly: LPS-induced IL-8 release in PBMC cells (assay b). Format: cell-based, human. Particulars: LPS-stimulated PBMCs, read-out: IC50 Values for Inhibition of Cytokine Release, PBMCs IL-8. The protocol: Peripheral blood mononuclear cells (PBMCs) from healthy subjects are separated from whole blood using a density gradient (Lymphoprep, Axis-Shield Healthcare). The PBMCs are seeded in 96 well plates and treated with compounds at the desired concentration for 2 hours before addition of 1 ng/mL LPS (Escherichia Coli 0111:B4 from Sigma Aldrich) for 24 hours under normal tissue culture conditions (37° C., 5% CO2). The supernatant is harvested for determination of IL-8 and TNFα concentrations by sandwich ELISA (Duo-set, R&D systems) and read on the fluorescence microplate reader (Varioskan® Flash, ThermoFisher Scientific). The concentration at 50% inhibition (IC50) of IL-8 and TNFα production is calculated from the dose response curve.

Sequence of GSK 3α (P49840 whole entry): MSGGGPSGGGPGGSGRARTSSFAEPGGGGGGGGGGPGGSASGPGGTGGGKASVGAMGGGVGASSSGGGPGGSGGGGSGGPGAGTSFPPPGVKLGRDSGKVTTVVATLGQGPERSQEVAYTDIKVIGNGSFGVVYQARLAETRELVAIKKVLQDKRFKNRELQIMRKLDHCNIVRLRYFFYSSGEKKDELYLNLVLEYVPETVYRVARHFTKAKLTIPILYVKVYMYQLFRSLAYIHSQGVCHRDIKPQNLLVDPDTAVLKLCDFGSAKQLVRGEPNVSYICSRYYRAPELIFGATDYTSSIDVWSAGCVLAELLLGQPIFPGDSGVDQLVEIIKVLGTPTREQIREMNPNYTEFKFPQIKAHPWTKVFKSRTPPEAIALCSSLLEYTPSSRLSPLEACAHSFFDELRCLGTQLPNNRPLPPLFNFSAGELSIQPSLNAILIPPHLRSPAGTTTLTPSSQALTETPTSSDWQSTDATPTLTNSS

With `COc1c(NC(=O)Nc2ccc(Oc3ccnc(NC4CCOCC4)n3)c3ccccc23)cc(C(C)(C)C)cc1P(C)(C)=O` [Example 31, 1-(5-(tert-Butyl)-3-(dimethylphosphoryl)-2-methoxyphenyl)-3-(4-((2-((tetrahydro-2H-pyran-4-yl)amino)pyrimidin-4-yl)oxy)naphthalen-1-yl)urea], the IC50 on GSK 3α was found to be 186 nM; with PBMCs (Homo sapiens, PBMC) it was 2.6 nM.
On to `COCCOCCOCCNC(=O)c1cc(Nc2cc(Oc3ccc(NC(=O)Nc4cc(C(C)(C)C)cc(C[S+](C)[O-])c4OC)c4ccccc34)ccn2)cc(OC)c1` (centres unmarked) [38(z), 3-((4-((4-(3-(5-(tert-Butyl)-2-methoxy-3-((methylsulfinyl)methyl)phenyl)ureido)naphthalen-1-yl)oxy)pyridin-2-yl)amino)-5-methoxy-N-(2-(2-(2-methoxyethoxy)ethoxy)ethyl)benzamide], for which the IC50 at GSK 3α stood at 789 nM; in the experiment on PBMCs (Homo sapiens, PBMC), 0.6 nM.
Take `CNC(=O)c1cc(CN2CCN(C)CC2)cc(Nc2cc(Oc3ccc(NC(=O)Nc4cc(C(C)(C)C)cc(P(C)(C)=O)c4OC)c4ccccc34)ccn2)c1` [Example 78, 3-((4-((4-(3-(5-(tert-Butyl)-3-(dimethylphosphoryl)-2-methoxyphenyl)ureido)naphthalen-1-yl)oxy)pyridin-2-yl)amino)-N-methyl-5-((4-methylpiperazin-1-yl)methyl)benzamide]: the IC50 at GSK 3α is 773 nM; in the experiment with PBMCs (Homo sapiens, PBMC), 23 nM.
On to `COc1cc(Nc2cc(Oc3ccc(NC(=O)Nc4cc(C(C)(C)C)cc(CNC(C)=O)c4OC)c4ccccc34)ccn2)cc(C(N)=O)c1` [38(ac), 3-((4-((4-(3-(3-(Acetamidomethyl)-5-(tert-butyl)-2-methoxyphenyl)ureido)naphthalen-1-yl)oxy)pyridin-2-yl)amino)-5-methoxybenzamide], for which the IC50 at GSK 3α turned out to be 834 nM; in the experiment on PBMCs (Homo sapiens, PBMC), 0.4 nM.
In the case of `COc1c(NC(=O)Nc2ccc(Oc3ccnc(Nc4ccccn4)n3)c3ccccc23)cc(C(C)(C)C)cc1P(C)(C)=O` [15(o), 1-(5-(tert-butyl)-3-(dimethylphosphoryl)-2-methoxyphenyl)-3-(4-((2-(pyridin-2-ylamino)pyrimidin-4-yl)oxy)naphthalen-1-yl)urea], the IC50 on GSK 3α came to 5800 nM; with PBMCs (Homo sapiens, PBMC), 20.4 nM.
Take `COc1cc(Nc2nccc(Oc3ccc(NC(=O)Nc4cc(C(C)(C)C)cc(P(C)(C)=O)c4OC)c4ccccc34)n2)cc(P(C)(C)=O)c1` [Example 21, 1-(5-(tert-Butyl)-3-(dimethylphosphoryl)-2-methoxyphenyl)-3-(4-((2-((3-(dimethylphosphoryl)-5-methoxyphenyl)amino)pyrimidin-4-yl)oxy)naphthalen-1-yl)urea]: the IC50 on GSK 3α worked out at 282 nM; in the experiment on PBMCs (Homo sapiens, PBMC) it was 3.2 nM.
As for `CNC(=O)c1cc(Nc2cc(Oc3ccc(NC(=O)Nc4cc(C(C)(C)C)cc(P(C)(C)=O)c4OC)c4ccccc34)ccn2)cc(OCCN2CCOCC2)c1` [79(f), 3-[[4-[[4-[(5-tert-Butyl-3-dimethylphosphoryl-2-methoxy-phenyl)carbamoylamino]-1-naphthyl]oxy]-2-pyridyl]amino]-N-methyl-5-(2-morpholinoethoxy)benzamide], the IC50 on GSK 3α was 957 nM; with PBMCs (Homo sapiens, PBMC), 3.9 nM.
`COc1cc(Nc2cc(Oc3ccc(NC(=O)Nc4cc(C(C)(C)C)cc(P(C)(C)=O)c4OC)c4ccccc34)ccn2)ccc1C(=O)NC1CCN(C)CC1` [79(b), 4-[[4-[[4-[(5-tert-Butyl-3-dimethylphosphoryl-2-methoxy-phenyl)carbamoylamino]-1-naphthyl]oxy]-2-pyridyl]amino]-2-methoxy-N-(1-methyl-4-piperidyl)benzamide]: the IC50 on GSK 3α was determined as 1880 nM; with PBMCs (Homo sapiens, PBMC), 7.4 nM.
Taken in the same sequence, the figures for `COc1c(NC(=O)Nc2ccc(Oc3ccnc(Nc4ccccc4)c3)c3ccccc23)cc(C(C)(C)C)cc1[S+](C)[O-]` (single isomer, unassigned) [38(b2), 1-(5-(tert-Butyl)-2-methoxy-3-(methylsulfinyl)phenyl)-3-(4-((2-(phenylamino)pyridin-4-yl)oxy)naphthalen-1-yl)urea] were over 11100 nM and 6 nM.
In the case of `COc1cccc(Nc2cc(Oc3ccc(NC(=O)Nc4cc(C(C)(C)C)cc(CC(=O)N5CCOCC5)c4OC)c4ccccc34)ccn2)c1` [38(j), 1-(5-(tert-Butyl)-2-methoxy-3-(2-morpholino-2-oxoethyl)phenyl)-3-(4-((2-((3-methoxyphenyl)amino)pyridin-4-yl)oxy)naphthalen-1-yl)urea], the IC50 at GSK 3α is over 14500 nM; with PBMCs (Homo sapiens, PBMC), 12.5 nM.
Taken in the same sequence, the figures for `COc1ccc(Nc2nccc(Oc3ccc(NC(=O)Nc4cc(C(C)(C)C)cc(P(C)(C)=O)c4OC)c4ccccc34)n2)cc1OC` [15(i), 1-(5-(tert-butyl)-3-(dimethylphosphoryl)-2-methoxyphenyl)-3-(4-((2-((3,4-dimethoxyphenyl)amino)pyrimidin-4-yl)oxy)naphthalen-1-yl)urea] were 359 nM and 1.5 nM.
For `COc1c(NC(=O)Nc2ccc(Oc3ccnc(Nc4cc(C)c5[nH]ncc5c4)n3)c3ccccc23)cc(C(C)(C)C)cc1[S+](C)[O-]` (centres unmarked) [Example 74, 1-(5-(tert-Butyl)-2-methoxy-3-(methylsulfinyl)phenyl)-3-(4-((2-((7-methyl-1H-indazol-5-yl)amino)pyrimidin-4-yl)oxy)naphthalen-1-yl)urea] the same measures were 1230 nM and 1.6 nM.
As to `COc1c(NC(=O)Nc2ccc(Oc3ccnc(NC(=O)CN4C[C@@H](C)O[C@@H](C)C4)c3)c3ccccc23)cc(C(C)(C)C)cc1P(C)(C)=O` [Example 26, N-(4-((4-(3-(5-(tert-Butyl)-3-(dimethylphosphoryl)-2-methoxyphenyl)ureido)naphthalen-1-yl)oxy)pyridin-2-yl)-2-(cis-2,6-dimethylmorpholino)acetamide], the IC50 at GSK 3α is 249 nM; with PBMCs (Homo sapiens, PBMC) it was 2.2 nM.
Taken in the same sequence, the figures for `COc1c(NC(=O)Nc2ccc(Oc3ccnc(Nc4ccccc4)c3)c3ccccc23)cc(C(C)(C)C)cc1C(=O)NCCN1CCNCC1` [Example 23, 5-(tert-Butyl)-2-methoxy-3-(3-(4-((2-(phenylamino)pyridin-4-yl)oxy)naphthalen-1-yl)ureido)-N-(2-(piperazin-1-yl)ethyl)benzamide] were 7940 nM and 6.8 nM.
As for `COc1c(NC(=O)Nc2ccc(Oc3ccnc(Nc4ccc5c(c4)OCCO5)n3)c3ccccc23)cc(C(C)(C)C)cc1P(C)(C)=O` [15(w), 1-(5-(tert-butyl)-3-(dimethylphosphoryl)-2-methoxyphenyl)-3-(4-((2-((2,3-dihydrobenzo[b][1,4]dioxin-6-yl)amino)pyrimidin-4-yl)oxy)naphthalen-1-yl)urea], the 50% inhibitory concentration (IC50) on GSK 3α turned out to be 1670 nM; in the experiment with PBMCs (Homo sapiens, PBMC), 10.5 nM.
Take `COc1c(NC(=O)Nc2ccc(Oc3ccnc(N[C@H]4CCOC4)n3)c3ccccc23)cc(C(C)(C)C)cc1P(C)(C)=O` [15(aj), (S)-1-(5-(tert-butyl)-3-(dimethylphosphoryl)-2-methoxyphenyl)-3-(4-((2-((tetrahydrofuran-3-yl)amino)pyrimidin-4-yl)oxy)naphthalen-1-yl)urea]: the IC50 on GSK 3α was 68 nM; with PBMCs (Homo sapiens, PBMC) it was 1.8 nM.
On to `COc1c(NC(=O)Nc2ccc(Oc3ccnc(NC4CCN(C)CC4)n3)c3ccccc23)cc(C(C)(C)C)cc1P(C)(C)=O` [15(ah), 1-(5-(tert-butyl)-3-(dimethylphosphoryl)-2-methoxyphenyl)-3-(4-((2-((1-methylpiperidin-4-yl)amino)pyrimidin-4-yl)oxy)naphthalen-1-yl)urea], for which the IC50 was determined as 602 nM on GSK 3α and 299 nM in the experiment on PBMCs (Homo sapiens, PBMC).
Regarding `COc1cc(Nc2cc(Oc3ccc(NC(=O)Nc4cc(C(C)(C)C)cc(CC(N)=O)c4OC)c4ccccc34)ccn2)cc(P(C)(C)=O)c1` [38(ae), 2-(5-(tert-Butyl)-3-(3-(4-((2-((3-(dimethylphosphoryl)-5-methoxyphenyl)amino)pyridin-4-yl)oxy)naphthalen-1-yl)ureido)-2-methoxyphenyl)acetamide], the IC50 stood at 800 nM on GSK 3α and 1.2 nM in the experiment on PBMCs (Homo sapiens, PBMC).
In the case of `COc1c(NC(=O)Nc2ccc(Oc3ccnc(NCCN4CCOCC4)n3)c3ccccc23)cc(C(C)(C)C)cc1P(C)(C)=O` [15(al), 1-(5-(tert-butyl)-3-(dimethylphosphoryl)-2-methoxyphenyl)-3-(4-((2-((2-morpholinoethyl)amino)pyrimidin-4-yl)oxy)naphthalen-1-yl)urea], the IC50 on GSK 3α came to 339 nM; in the experiment on PBMCs it was 3.7 nM.

The term IC50 denotes the concentration that gives 50% inhibition.
